According to ChEMBL document CHEMBL3885881, “DrugMatrix”:

Species: Rattus norvegicus
Test: DrugMatrix - Regimen: Daily Repeat
Type: toxicity, organism-based, Sprague-Dawley
Set-up: regimen Daily Repeat, gender Male, age 6-8 weeks
Details: in vivo, po, 0 mg/kg, route oral GAVAGE, dose level Control, […]; for ABSOLUTE BASOPHIL / ABSOLUTE EOSINOPHIL / ABSOLUTE LYMPHOCYTE / ABSOLUTE MONOCYTE / ABSOLUTE SEGMENTED NEUTROPHIL / BASOPHIL / EOSINOPHIL / ERYTHROCYTE COUNT / HEMATOCRIT / HEMOGLOBIN / LEUKOCYTE COUNT / LYMPHOCYTE / MEAN CORPUSCULAR HEMOGLOBIN / MEAN CORPUSCULAR HEMOGLOBIN CONCENTRATION / MEAN CORPUSCULAR VOLUME / MONOCYTE / NEUTROPHIL / NUCLEATED RED BLOOD CELLS / PLATELET COUNT: tissue Blood; for ALANINE AMINOTRANSFERASE / ALBUMIN / ALKALINE PHOSPHATASE / ASPARTATE AMINOTRANSFERASE / BLOOD UREA NITROGEN / CARBON DIOXIDE / CHLORIDE / CHOLESTEROL / CREATINE PHOSPHOKINASE / CREATININE / GLUCOSE / LACTATE DEHYDROGENASE / LIPASE / PHOSPHORUS / POTASSIUM / SODIUM / TOTAL BILIRUBIN / TOTAL PROTEIN / URIC ACID: tissue Plasma

CC(C)(Oc1ccc(CCNC(=O)c2ccc(Cl)cc2)cc1)C(=O)O [BEZAFIBRATE]
ABSOLUTE BASOPHIL (72 h, time 3 day): 0 CELLS/uL
ABSOLUTE EOSINOPHIL (72 h, time 3 day): 37.33 CELLS/uL
ABSOLUTE LYMPHOCYTE (72 h, time 3 day): 6295.33 CELLS/uL
ABSOLUTE MONOCYTE (72 h, time 3 day): 122.17 CELLS/uL
ABSOLUTE SEGMENTED NEUTROPHIL (72 h, time 3 day): 861.83 CELLS/uL
BASOPHIL (72 h, time 3 day): 0%
EOSINOPHIL (72 h, time 3 day): 0.5%
ERYTHROCYTE COUNT (72 h, time 3 day): 5.2 x10E6/uL
HEMATOCRIT (72 h, time 3 day): 32.58%
HEMOGLOBIN (72 h, time 3 day): 12.95 G/DL
LEUKOCYTE COUNT (72 h, time 3 day): 7.32 x10E3/uL
LYMPHOCYTE (72 h, time 3 day): 86%
MEAN CORPUSCULAR HEMOGLOBIN (72 h, time 3 day): 24.93 pg
MEAN CORPUSCULAR HEMOGLOBIN CONCENTRATION (72 h, time 3 day): 39.77 G/DL
MEAN CORPUSCULAR VOLUME (72 h, time 3 day): 62.65 fL
MONOCYTE (72 h, time 3 day): 1.67%
NEUTROPHIL (72 h, time 3 day): 11.83%
NUCLEATED RED BLOOD CELLS (72 h, time 3 day): 0 /100WBC
PLATELET COUNT (72 h, time 3 day): 1029 x10E3/uL
ALANINE AMINOTRANSFERASE (72 h, time 3 day): 63.67 u/L
ALBUMIN (72 h, time 3 day): 4.12 G/DL
ALKALINE PHOSPHATASE (72 h, time 3 day): 329.83 u/L
ASPARTATE AMINOTRANSFERASE (72 h, time 3 day): 77.67 u/L
BLOOD UREA NITROGEN (72 h, time 3 day): 18 mg/dL
CARBON DIOXIDE (72 h, time 3 day): 29.67 mmol/L
CHLORIDE (72 h, time 3 day): 102.67 MEQ/L
CHOLESTEROL (72 h, time 3 day): 64.5 mg/dL
CREATINE PHOSPHOKINASE (72 h, time 3 day): 178.67 u/L
CREATININE (72 h, time 3 day): 0.18 mg/dL
GLUCOSE (72 h, time 3 day): 163.83 mg/dL
LACTATE DEHYDROGENASE (72 h, time 3 day): 75.83 u/L
LIPASE (72 h, time 3 day): 10 u/L
PHOSPHORUS (72 h, time 3 day): 8.28 mg/dL
POTASSIUM (72 h, time 3 day): 4.79 MEQ/L
SODIUM (72 h, time 3 day): 142.22 MEQ/L
TOTAL BILIRUBIN (72 h, time 3 day): 0.22 mg/dL
TOTAL PROTEIN (72 h, time 3 day): 5.78 G/DL
URIC ACID (72 h, time 3 day): 0.87 mg/dL
BASOPHIL (120 h, time 5 day): 0.32%
EOSINOPHIL (120 h, time 5 day): 0.58%
ERYTHROCYTE COUNT (120 h, time 5 day): 7.26 x10E6/uL
HEMATOCRIT (120 h, time 5 day): 46.94%
HEMOGLOBIN (120 h, time 5 day): 14.9 G/DL
LEUKOCYTE COUNT (120 h, time 5 day): 8.69 x10E3/uL
LYMPHOCYTE (120 h, time 5 day): 81.52%
MEAN CORPUSCULAR HEMOGLOBIN (120 h, time 5 day): 20.58 pg
MEAN CORPUSCULAR HEMOGLOBIN CONCENTRATION (120 h, time 5 day): 31.8 G/DL
MEAN CORPUSCULAR VOLUME (120 h, time 5 day): 64.68 fL
MONOCYTE (120 h, time 5 day): 2.16%
NEUTROPHIL (120 h, time 5 day): 13.88%
PLATELET COUNT (120 h, time 5 day): 1531.2 x10E3/uL
ALANINE AMINOTRANSFERASE (120 h, time 5 day): 33.2 u/L
ALBUMIN (120 h, time 5 day): 3.74 G/DL
ALKALINE PHOSPHATASE (120 h, time 5 day): 318 u/L
ASPARTATE AMINOTRANSFERASE (120 h, time 5 day): 78.6 u/L
BLOOD UREA NITROGEN (120 h, time 5 day): 6 mg/dL
CHLORIDE (120 h, time 5 day): 108.4 MEQ/L
CHOLESTEROL (120 h, time 5 day): 63 mg/dL
CREATINE PHOSPHOKINASE (120 h, time 5 day): 251 u/L
CREATININE (120 h, time 5 day): 0.18 mg/dL
GLUCOSE (120 h, time 5 day): 125.6 mg/dL
PHOSPHORUS (120 h, time 5 day): 12.06 mg/dL
POTASSIUM (120 h, time 5 day): 5.92 MEQ/L
SODIUM (120 h, time 5 day): 146.8 MEQ/L
TOTAL BILIRUBIN (120 h, time 5 day): 0.16 mg/dL
TOTAL PROTEIN (120 h, time 5 day): 6.06 G/DL
ABSOLUTE BASOPHIL (time 7 day): 0 CELLS/uL
ABSOLUTE EOSINOPHIL (time 7 day): 19 CELLS/uL
ABSOLUTE LYMPHOCYTE (time 7 day): 7803.5 CELLS/uL
ABSOLUTE MONOCYTE (time 7 day): 117.83 CELLS/uL
ABSOLUTE SEGMENTED NEUTROPHIL (time 7 day): 1093 CELLS/uL
BASOPHIL (time 7 day): 0%
EOSINOPHIL (time 7 day): 0.17%
ERYTHROCYTE COUNT (time 7 day): 5.84 x10E6/uL
HEMATOCRIT (time 7 day): 35.75%
HEMOGLOBIN (time 7 day): 13.87 G/DL
LEUKOCYTE COUNT (time 7 day): 9.03 x10E3/uL
LYMPHOCYTE (time 7 day): 87.17%
MEAN CORPUSCULAR HEMOGLOBIN (time 7 day): 23.78 pg
MEAN CORPUSCULAR HEMOGLOBIN CONCENTRATION (time 7 day): 38.8 G/DL
MEAN CORPUSCULAR VOLUME (time 7 day): 61.25 fL
MONOCYTE (time 7 day): 1.17%
NEUTROPHIL (time 7 day): 11.5%
NUCLEATED RED BLOOD CELLS (time 7 day): 0 /100WBC
PLATELET COUNT (time 7 day): 1098.67 x10E3/uL
BASOPHIL (time 28 day): 0.42%
EOSINOPHIL (time 28 day): 0.58%
ERYTHROCYTE COUNT (time 28 day): 8.06 x10E6/uL
HEMATOCRIT (time 28 day): 48.44%
HEMOGLOBIN (time 28 day): 16.34 G/DL
LEUKOCYTE COUNT (time 28 day): 13.04 x10E3/uL
LYMPHOCYTE (time 28 day): 85.12%
MEAN CORPUSCULAR HEMOGLOBIN (time 28 day): 20.26 pg
MEAN CORPUSCULAR HEMOGLOBIN CONCENTRATION (time 28 day): 33.74 G/DL
MEAN CORPUSCULAR VOLUME (time 28 day): 60.1 fL
MONOCYTE (time 28 day): 1.44%
NEUTROPHIL (time 28 day): 11.28%
PLATELET COUNT (time 28 day): 1226 x10E3/uL
ALANINE AMINOTRANSFERASE (time 7 day): 66 u/L
ALBUMIN (time 7 day): 4.3 G/DL
ALKALINE PHOSPHATASE (time 7 day): 291.83 u/L
ASPARTATE AMINOTRANSFERASE (time 7 day): 80.5 u/L
BLOOD UREA NITROGEN (time 7 day): 15.67 mg/dL
CARBON DIOXIDE (time 7 day): 30 mmol/L
CHLORIDE (time 7 day): 101.67 MEQ/L
CHOLESTEROL (time 7 day): 69.67 mg/dL
CREATINE PHOSPHOKINASE (time 7 day): 363.33 u/L
CREATININE (time 7 day): 0.25 mg/dL
GLUCOSE (time 7 day): 146.5 mg/dL
LACTATE DEHYDROGENASE (time 7 day): 219.67 u/L
LIPASE (time 7 day): 11.33 u/L
PHOSPHORUS (time 7 day): 10.08 mg/dL
POTASSIUM (time 7 day): 5.22 MEQ/L
SODIUM (time 7 day): 144.67 MEQ/L
TOTAL BILIRUBIN (time 7 day): 0.12 mg/dL
TOTAL PROTEIN (time 7 day): 6.33 G/DL
URIC ACID (time 7 day): 0.75 mg/dL
ALANINE AMINOTRANSFERASE (time 28 day): 28.6 u/L
ALBUMIN (time 28 day): 3.94 G/DL
ALKALINE PHOSPHATASE (time 28 day): 254.6 u/L
ASPARTATE AMINOTRANSFERASE (time 28 day): 67.8 u/L
BLOOD UREA NITROGEN (time 28 day): 10.4 mg/dL
CHLORIDE (time 28 day): 104.6 MEQ/L
CHOLESTEROL (time 28 day): 57.6 mg/dL
CREATINE PHOSPHOKINASE (time 28 day): 224.8 u/L
CREATININE (time 28 day): 0.4 mg/dL
GLUCOSE (time 28 day): 140.6 mg/dL
PHOSPHORUS (time 28 day): 10.66 mg/dL
POTASSIUM (time 28 day): 6.58 MEQ/L
SODIUM (time 28 day): 148.6 MEQ/L
TOTAL BILIRUBIN (time 28 day): 0.24 mg/dL
TOTAL PROTEIN (time 28 day): 6.64 G/DL
